In patent publication US10011602B2, “Immunological reagents and uses therefor” (THE UNIVERSITY OF MELBOURNE, priority 2012, dated 2018):
Numbering of substitutions follows the chain as printed.

B1: mouse MR1 refolded with 6-FP: tetramers from mouse MR1 (BirA peptide-tagged) refolded with 6-FP (protein, UniProt Q8HWB0 19-341, looked up)
Major histocompatibility …: RTHSLRYFRLAVSDPGPVVPEFISVGYVDSHPITTYDSVTRQKEPKAPWMAENLAPDHWERYTQLLRGWQQTFKAELRHLQRHYNHSGLHTYQRMIGCELLEDGSTTGFLQYAYDGQDFIIFNKDTLSWLAMDYVAHITKQAWEANLHELQYQKNWLEEECIAWLKRFLEYGRDTLERTEHPVVRTTRKETFPGITTFFCRAHGFYPPEISMTWMKNGEEIAQEVDYGGVLPSGDGTYQTWLSVNLDPQSNDVYSCHVEHCGRQMVLEAPRESGDILRVSTISGTTILIIALAGVGVLIWRRSQELKEVMYQPTQVNEGSSPS
modifications: BirA tag, tetramer, 6-FP ligand
B2: rRL-6-CH2OH-loaded mouse Lys43Ala-MR1: tetramers of mouse Lys43Ala-MR1 loaded with rRL-6-CH2OH (protein, UniProt Q8HWB0 19-341, looked up, variant K43A)
Major histocompatibility …: B1 Major histocompatibility … with K43A
modifications: tetramer loaded with rRL-6-CH2OH
notes: tetramers of mouse Lys43Ala-MR1 loaded with rRL-6-CH2OH

Experiments:
Jurkat.MAIT cells = assay: Activation of Jurkat.MAIT cells (CD69) with C1R antigen presenting cells expressing MR1; format: cell-based, human
Method: Jurkat cells transduced with a MAIT TCR comprising the TRAV1-2+TRAJ33 invariant α chain, and a TRBV6-1 β chain were tested for activation by addition of Salmonella supernatant to C1R antigen presenting cells expressing MR1 for 16 hours. Jurkat.MAIT cells were subsequently stained with PE-conjugated anti-CD3, and APC-conjugated anti-CD69 antibodies before analysis by flow cytometry. Activation of Jurkat.MAIT cells was measured by an increase in surface CD69 expression. Compounds to be tested for the ability to activate Jurkat.MAIT cells were tested alongside Salmonella supernatant.
A biological assay for the activation of MAIT T cell receptor (TCR)-expressing T cell lines (into which genes encoding the MAIT TCR alpha and beta chains had been introduced), by antigen presenting cells (expressing MR1 on the cell surface) infected with the bacterium Salmonella typhimurium has been established. This assay measures the increase in expression of the cell surface activation marker, CD69, upon activation of MAIT T cells.

MR1 = target: T1, MR1 (Homo sapiens, UniProt Q95460); assay: Refolding of denatured MR1 and β2m with ligands; format: binding; details: substance added to MR1/β2m refold
T1 construct: soluble human MR1 (residues 1-270 of the mature, leaderless protein); made in house
T1 sequence (Q95460 23-292): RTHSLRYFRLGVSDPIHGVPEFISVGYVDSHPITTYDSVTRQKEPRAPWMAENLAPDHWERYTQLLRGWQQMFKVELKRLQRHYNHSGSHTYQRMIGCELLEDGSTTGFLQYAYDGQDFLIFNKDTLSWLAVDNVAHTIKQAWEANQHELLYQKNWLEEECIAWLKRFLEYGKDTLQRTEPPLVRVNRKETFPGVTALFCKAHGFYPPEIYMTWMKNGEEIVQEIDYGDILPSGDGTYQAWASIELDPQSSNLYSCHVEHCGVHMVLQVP
T1 sequence (P61769 21-119 partner): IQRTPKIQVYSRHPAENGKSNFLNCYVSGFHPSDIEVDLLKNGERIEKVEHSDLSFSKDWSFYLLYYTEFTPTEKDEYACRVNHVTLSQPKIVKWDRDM
Method: Genes encoding soluble human MR1 (residues 1-270 of the mature, leaderless protein, lacking the transmembrane and cytoplasmic domains); or human β2m (mature, leaderless protein) were expressed for four hours in BL21 E. coli following induction with 1 mM isopropyl β-D-1-thiogalactopyranoside. E. coli were pelleted and resuspended in a buffer containing 50 mM Tris, 25% (w/v) sucrose, 1 mM EDTA, 10 mM DTT pH 8.0. Inclusion body protein was then extracted by lysis of bacteria in a buffer containing 50 mM Tris pH 8.0, 1% (w/v) Triton X-100, 1% (w/v) sodium deoxycholate, 100 mM NaCl, 10 mM DTT, 5 mM MgCl2, and 1 mg DnaseI per liter of starting culture; and subsequent steps involved homogenization with a polytron homogenizer, centrifugation, and washing inclusion body protein sequentially with firstly a buffer containing 50 mM Tris pH 8, […], 100 mM NaCl, 1 mM EDTA, 1 mM DTT, and secondly a buffer containing 50 mM Tris pH 8.0, 1 mM EDTA, 1 mM DTT. Inclusion body protein was then resuspended in a buffer containing 20 mM Tris pH 8.0, 8 M urea, 0.5 mM EDTA, 1 mM DTT, and following centrifugation the supernatant containing solubilized, denatured inclusion body protein was collected and stored at −80° C.
2 mg of 6-formyl pterin, 56 mg of denatured inclusion body MR1 protein, and 28 mg of β2m protein were added to a 400 ml refold buffer solution containing 0.1 M Tris pH 8.5, 2 mM EDTA, 0.4 M arginine, 0.5 mM oxidized glutathione, 5 mM reduced glutathione. Variably, 5M urea was either present or absent. Following an overnight incubation at 4° C., the refold buffer was dialysed against 3 changes of buffer containing 10 mM Tris, pH8.0 over a period of 24 hours. Refolded MR1-β2m-ligand complex was then purified by sequential DEAE (GE Healthcare) anion exchange, S75 16/60 (GE Healthcare) gel filtration, and MonoQ (GE Healthcare) anion exchange chromatography.

[1] = test system: Jurkat cells expressing a conventional T cell receptor; assay: Control: inhibition of activation of Jurkat cells expressing a conventional T cell receptor by viral peptide-classical class I complexes; format: cell-based, human; details: antigen presenting cells displaying viral peptide-classical class I complexes
Description: Thus, 6-formyl pterin has been identified as a potential antagonist compound, capable of blocking activation of MAIT cells by bacterial activating ligands.

[2] = test system: human MAIT cells from peripheral blood; assay: Activation of primary MAIT cells from PBMCs (CD69, IFN-γ, TNF-α); format: cell-based; details: PBMCs with C1R cells expressing MR1
Method: PBMCs from a healthy donor were mixed with C1R-huMR1 cells (10^5 each/well). Salmonella SL1344 supernatant (2 μl) from cultures grown in LB supplemented with 25 μg/ml streptomycin (Sigma) for 4 hr at 37° C., or compounds (35A, 36A, 48G: 25 μg/ml final, A-6FP: 10 μM final) or PMA (2 ng/ml+ionomycin (1 ng/ml) added in a total volume of 220 μl RF-10, and incubated overnight at 37° C. Cells were stained with anti-CD3-PE-Cy7 (eBioscience, 20 μg/ml), anti-CD4-APC-Cy7 (Biolegend, 1.7 μg/ml), anti-CD161-APC (Miltenyi Biotec, 1:50), FITC-conjugated D5 (anti-MAIT TCR, 10 μg/ml) and either anti-CD69-PE (BD Biosciences 1:50), anti-IFNγ-PE (BD Pharmingen 10 μg/ml) or anti-TNFα-PE (BD Pharmingen 10 μg/ml), and analyzed by flow cytometry using a Canto II cytometer and Diva software. For intracellular cytokine staining, brefeldin A (10 μg/ml) was added to the assay after the first 1 hr and the incubation allowed to proceed overnight. Cells were fixed with 1% parformaldehyde after staining for surface markers and permeabilised with 1% saponin during cytokine stains. MAIT cells were defined as CD3^+, CD4^−, CD161^+, D5^+ after gating on PBMCs using FSC and SSC.
PBMCs from a healthy donor were mixed with C1R cells expressing MR1 (10^5 each/well). Salmonella SL1344 supernatant (2 μl) from cultures grown in LB supplemented with 25 μg/ml streptomycin (Sigma) for 4 hr at 37° C., or compounds (RL-6,7-diMe, RL-6-Me-7-OH, 6FP: 76.2 μM final, rRL-6-HM: 0.152 μM final) or PMA (2 ng/ml+ionomycin (1 ng/ml) added in a total volume of 220 μl RF-10, and incubated overnight at 37° C. Cells were stained with anti-CD3-PE-Cy7 (eBioscience, 20 μg/ml), anti-CD4-APC-Cy7 (Biolegend, 1.7 μg/ml), anti-CD161-APC (Miltenyi Biotec, 1:50), FITC-conjugated D5 (anti-MAIT TCR, 10 μg/ml) and either anti-CD69-PE (BD Biosciences 1:50), anti-IFNγ-PE (BD Pharmingen 10 μg/ml) or anti-TNFα-PE (BD Pharmingen 10 μg/ml), and analyzed by flow cytometry using a Canto II cytometer and Diva software. […] CD69 expression was analysed by flow cytometry. […]

human PBMC MAIT cells = assay: MR1 tetramer staining of human PBMCs (flow cytometry); format: cell-based; details: PE-streptavidin tetramers; D5, CD161 co-staining
Method: Biotinylated MR1 (produced in either of the 2 methods mentioned above) is used to make tetramers by the addition of biotinylated MR1 to PE Streptavidin (#554061, BD Pharmingen) in a 4:1 molar ratio. PE Streptavidin is added sequentially in 1/10 aliquots to biotinylated MR1 at 10 minute intervals to ensure efficient tetramization.
Human MAIT cells are identified as being D5-positive (D5 mAb stains Vα7.2,-positive T cells; Vα7.2 is the invariant Vα-chain utilized by human MAIT cells) and CD161-positive. Human PBMCs were stained with CD3-PE-Cy7, CD8-PerCP, CD4-APC-Cy7, CD161-APC specific mAbs; as well as the anti-Vα7.2-FITC mAb D5 (generated in-house; human MAIT cells utilize the Vα7.2 alpha chain) and PE-labeled tetramers of mouse MR1-β2m-acetyl-6-Formyl Pterin (mouse MR1 had been refolded with either 6-formyl pterin or acetyl-6-formyl pterin).

MAIT cells = assay: Re-presentation assay: refolded soluble MR1 added to antigen presenting cells expressing MR1 and MAIT cells; format: cell-based; details: MR1 refolded with the named substance
Jurkat.LC13 line = assay: Activation of control Jurkat.LC13 line in the presence of C1R.HLA-B8 cells; format: cell-based, human
Description: Next, to formally establish whether 7-hydroxy-6-methyl-8-ribityl lumazine and/or its precursor, 6,7-dimethyl-8-ribityl lumazine, could activate MAIT cells, both compounds were chemically synthesized their ability to enable MR1 refolding and to activate Jurkat.MAIT cells and human MAIT cells from peripheral blood tested. […] Thus, direct precursors of riboflavin biosynthesis activate MAIT cells.

Molecule | Activation of Jurkat.MAIT cells (increase in surface CD69) (Jurkat.MAIT cells) | Ability to refold MR1 into native MR1-β2m complex (MR1) | Tetramer staining of human PBMC MAIT cells (human PBMC MAIT cells) | other results
Cc1cc2nc3c(=O)[nH]c(=O)nc-3n(C[C@H](O)[C@H](O)[C@H](O)CO)c2cc1C [riboflavin, reference compound] | did not | did not form MR1-β2m complexes | – | –
Nc1nc2nccnc2c(=O)[nH]1 [pterin] | – | inability | – | –
Nc1nc2ncc(C=O)nc2c(=O)[nH]1 [Compound 6-FP, 6-formyl pterin, reference compound] | did not activate | indistinguishable from MR1 refolded with folic acid | – | Inhibitory effect on activation of Jurkat cells expressing a conventional T cell receptor [1]: no inhibitory effect; Activation of MAIT cells (CD69 upregulation, intracellular IFN-γ and TNF-α) [2]: did not activate
human Leucine151Alanine MR1 refolded with acetyl-6-FP: tetramers from human Leucine151Alanine MR1 (BirA peptide-tagged) refolded with acetyl-6-FP | – | – | stain a proportion | –
human wild-type MR1 refolded with 6-FP: control tetramers from human wild-type MR1 refolded with 6-FP | – | – | fail to stain | –
Nc1nc2ncc(CNc3ccc(C(=O)N[C@@H](CCC(=O)O)C(=O)O)cc3)nc2c(=O)[nH]1 [Folic acid] | – | yielded significant amounts of native MR1 | – | Activation of MAIT cells by MR1 refolded with the substance (re-presentation assay) (MAIT cells): failed to activate; Activation of MAIT cells by MR1 refolded with the substance (re-presentation assay) (MAIT cells; listed as folic acid): non-stimulatory
Cc1nc2nc(N)[nH]c(=O)c2nc1C [6-7-dimethylpterin] | – | inability | – | –
Cc1nc2c(=O)[nH]c(=O)nc-2n(C[C@H](O)[C@H](O)[C@H](O)CO)c1O [Compound 2, 7-hydroxy-6-methyl-8-D-ribityllumazine] | activated | could be refolded with MR1 | – | Activation of MAIT cells (CD69 upregulation, intracellular IFN-γ and TNF-α) [2]: specifically activated; Activation of control Jurkat.LC13 line (Jurkat.LC13 line): failed to activate
B1 | – | – | can stain a proportion | –
B2 | – | – | identify a CD161-positive, D5-positive population | –
